In patent US7754919B2, “Non-nucleoside reverse transcriptase inhibitors” (Roche Palo Alto LLC, priority 2005, dated 2010) one finds IC50 and melting point data, which are given here for 39 molecules.

One may read the IC50 as the point on the concentration scale where inhibition reaches its midpoint. For orientation: melting point means the temperature of the solid-liquid transition.

Each structure is given as a SMILES string.

One series concerns the target HIV-1 RT (Human immunodeficiency virus type 1 group M subtype B, UniProt P03366). The series is described as follows: Homopolymer HIV Reverse Transcriptase Assay: Inhibitor IC50 Determination. It is filed as biochemical. Conditions: purified recombinant enzyme, poly(rA)/oligo(dT)16 template-primer, [3H] dTTP, 37° C. 30 min. The procedure: Homopolymer HIV Reverse Transcriptase Assay: Inhibitor IC50 Determination
HIV-1 RT assay was carried out in 96-well Millipore MultiScreen MADVNOB50 plates using purified recombinant enzyme and a poly(rA)/oligo(dT)16 template-primer in a total volume of 50 μL. The assay constituents were 50 mM Tris/HCl, 50 mM NaCl, 1 mM EDTA, 6 mM MgCl2, 5 μM dTTP, 0.15 μCi [^3H] dTTP, 5 μg/ml poly (rA) pre annealed to 2.5 μg/ml oligo (dT)16 and a range of inhibitor concentrations in a final concentration of 10% DMSO. reactions were initiated by adding 4 nM HIV-1 RT and after incubation at 37° C. for 30 min, they were stopped by the addition of 50 μl ice cold 20%TCA and allowed to precipitate at 4° C. for 30 min. The precipitates were collected by applying vacuum to the plate and sequentially washing with 3×200 μl of 10% TCA and 2×200 μl 70% ethanol. Finally, the plates were dried and radioactivity counted in a Packard TopCounter after the addition of 25 μl scintillation fluid per well. IC50's were calculated by plotting % inhibition versus log10 inhibitor concentrations.
Regarding `Cc1cc(C(=O)NCCN(C)C)ccc1NC(=O)Cc1ccc(Cl)c(Oc2cc(Cl)cc(C#N)c2)c1F` [Compound I-5, 4-{2-[4-Chloro-3-(3-chloro-5-cyano-phenoxy)-2-fluoro-phenyl]-acetylamino}-N-(2-dimethylamino-ethyl)-3-methyl-benzamide; compound with trifluoro-acetic acid], the IC50 is 15.4 nM. Still for that read-out and setting: the value for `Cc1cc(C(=O)NC[C@@H](C)O)ccc1NC(=O)Cc1ccc(Cl)c(Oc2cc(Cl)cc(C#N)c2)c1F` [Compound I-10, 4-{2-[4-Chloro-3-(3-chloro-5-cyano-phenoxy)-2-fluoro-phenyl]-acetylamino}-N-((R)-2-hydroxy-propyl)-3-methyl-benzamide] was 18.3 nM; that for `Cc1cc(C(=O)NCc2cccnc2)ccc1NC(=O)Cc1ccc(Cl)c(Oc2cc(Cl)cc(C#N)c2)c1F` [Compound I-15, 4-{2-[4-Chloro-3-(3-chloro-5-cyano-phenoxy)-2-fluoro-phenyl]-acetylamino}-3-methyl-N-pyridin-3-ylmethyl-benzamide; compound with trifluoro-acetic acid] was 16.6 nM; that for `Cc1cc(C(=O)NCC(O)CO)ccc1NC(=O)Cc1ccc(Cl)c(Oc2cc(Cl)cc(C#N)c2)c1F` (stereo not shown) [Compound I-20, 4-{2-[4-Chloro-3-(3-chloro-5-cyano-phenoxy)-2-fluoro-phenyl]-acetylamino}-N-(2,3-dihydroxy-propyl)-3-methyl-benzamide] was 20.6 nM. With `Cc1cc(C(=O)NCCN2CCC(O)CC2)ccc1NC(=O)Cc1ccc(Br)c(Oc2cc(Cl)cc(C#N)c2)c1F` [Compound I-25, 4-{2-[4-Bromo-3-(3-chloro-5-cyano-phenoxy)-2-fluoro-phenyl]-acetylamino}-N-[2-(4-hydroxy-piperidin-1-yl)-ethyl]-3-methyl-benzamide], the IC50 was determined as 55.2 nM. With `Cc1cc(C(=O)NCCN2CCNCC2)ccc1NC(=O)Cc1ccc(Br)c(Oc2cc(Cl)cc(C#N)c2)c1F` [Compound I-30, 4-{2-[4-Bromo-3-(3-chloro-5-cyano-phenoxy)-2-fluoro-phenyl]-acetylamino}-3-methyl-N-(2-piperazin-1-yl-ethyl)-benzamide], the IC50 was 20.9 nM. As to `Cc1cc(C(=O)NS(C)(=O)=O)ccc1NC(=O)Cc1ccc(Br)c(Oc2cc(Cl)cc(C#N)c2)c1F` [Compound I-36, 2-[4-Bromo-3-(3-chloro-5-cyano-phenoxy)-2-fluoro-phenyl]-N-(4-methanesulfonylaminocarbonyl-2-methyl-phenyl)-acetamide], the IC50 was determined as 4.6 nM.

System in the next series: not given
Assay: not given
Settings: not given
Molecule `Cc1cc(C(=O)O)ccc1NC(=O)Cc1ccc(Br)c(Oc2cc(C#N)cc(C(F)F)c2)c1F` returned a melting point of 267.9 to 268.1 °C.

In the case of `Cc1cc(C(=O)NCCN(C)C)ccc1NC(=O)Cc1ccc(Br)c(Oc2cc(C#N)cc(C(F)F)c2)c1F`, the melting point is 205.6 to 206.6 °C. `N#Cc1cc(Cl)cc(Oc2c(Cl)ccc(CC(=O)Nc3ccc(C(=O)O)cc3Cl)c2F)c1` registered a melting point of 242 to 243 °C. The molecule `Cc1cc(C(N)=O)ccc1NC(=O)Cc1ccc(Cl)c(Oc2cc(Cl)cc(C#N)c2)c1F` came in with a melting point of 255.9 to 257.1 °C. In turn, `CN(C)CCNC(=O)c1ccc(NC(=O)Cc2ccc(Cl)c(Oc3cc(Cl)cc(C#N)c3)c2F)c(Cl)c1` displayed a melting point of 202.8 to 203.6 °C.

With `Cc1cc(C(=O)O)ccc1NC(=O)Cc1ccc(Br)c(Oc2cc(Cl)cc(C#N)c2)c1F`, the melting point fell in the range of 270 to 270.8 °C. On to `Cc1cc(C(=O)NCCN2CCS(=O)(=O)CC2)ccc1NC(=O)Cc1ccc(Br)c(Oc2cc(Cl)cc(C#N)c2)c1F`, for which the melting point lay in the range of 168.1 to 170.1 °C. Turning to `Cc1cc(C(=O)NC(C)CN(C)C)ccc1NC(=O)Cc1ccc(Br)c(Oc2cc(Cl)cc(C#N)c2)c1F` (stereo not shown), the melting point lay in the range of 222 to 223.2 °C. Take `Cc1cc(C(=O)NCCN2CCCC2)ccc1NC(=O)Cc1ccc(Br)c(Oc2cc(Cl)cc(C#N)c2)c1F`: the melting point was in the range of 214.7 to 216.9 °C. Regarding `Cc1cc(C(=O)NCCN2CCOCC2)ccc1NC(=O)Cc1ccc(Br)c(Oc2cc(Cl)cc(C#N)c2)c1F`, the melting point lay in the range of 219.8 to 222 °C. For the molecule `Cc1cc(C(=O)NCCN)ccc1NC(=O)Cc1ccc(Cl)c(Oc2cc(Cl)cc(C#N)c2)c1F`, the melting point lay within 207.6 to 208.6 °C.

Turning to `Cc1cc(C(=O)O)ccc1NC(=O)Cc1ccc(Cl)c(Oc2cc(Cl)cc(C#N)c2)c1F`, the melting point lay in the range of 287.1 to 289.1 °C. The same measure, in the same setting: in the case of `Cc1cc(C(=O)NC2CCNC2)ccc1NC(=O)Cc1ccc(Br)c(Oc2cc(Cl)cc(C#N)c2)c1F` (stereo not shown) it was 117.8 to 120 °C; in that of `N#Cc1cc(Cl)cc(Oc2c(Br)ccc(CC(=O)Nc3ccc(C(=O)NCCN4CCCC4)cc3Cl)c2F)c1`, 197.7 to 198.3 °C. In turn, `N#Cc1cc(Oc2c(Br)ccc(CC(=O)Nc3ccc(C(=O)NCCN4CCCC4)cc3Cl)c2F)cc(C(F)F)c1` displayed a melting point of 160 to 165.7 °C. Molecule `Cc1cc(C(=O)NCCN2CCCC2)ccc1NC(=O)Cc1ccc(Br)c(Oc2cc(C#N)cc(C(F)F)c2)c1F` registered a melting point of 202.4 to 203.7 °C.

`Cc1cc(C(=O)NC[C@@H](C)O)ccc1NC(=O)Cc1ccc(Br)c(Oc2cc(C#N)cc(C(F)F)c2)c1F` had a melting point of 225.5 to 228.8 °C. Regarding `N#Cc1cc(Cl)cc(Oc2c(Br)ccc(CC(=O)Nc3ccc(C(=O)NC(=N)N)cc3Cl)c2F)c1`, the melting point was 207 to 209 °C. In turn, `Cc1cc(C(=O)NCCN(C)C)ccc1NC(=O)Cc1ccc(Cl)c(Oc2cc(Cl)cc(C#N)c2)c1F` yielded a melting point of 213.3 to 216 °C. In turn, `N#Cc1cc(Cl)cc(Oc2c(Br)ccc(CC(=O)Nc3ccc(C(=O)NCCN(CCO)CCO)cc3Cl)c2F)c1` yielded a melting point of 100.1 °C. As for `CC(CN(C)C)NC(=O)c1ccc(NC(=O)Cc2ccc(Br)c(Oc3cc(Cl)cc(C#N)c3)c2F)c(Cl)c1` (stereo not shown), the melting point was determined as 190.1 °C.

For `CCN1CCCC1CNC(=O)c1ccc(NC(=O)Cc2ccc(Br)c(Oc3cc(Cl)cc(C#N)c3)c2F)c(Cl)c1` (stereo not shown), the melting point stood at 212 °C. As for `CC1CC[C@@H](C)N1CCNC(=O)c1ccc(NC(=O)Cc2ccc(Br)c(Oc3cc(Cl)cc(C#N)c3)c2F)c(Cl)c1` (stereo partly shown), the melting point was in the range of 179 to 181 °C. In turn, `CC1(NC(=O)c2ccc(NC(=O)Cc3ccc(Br)c(Oc4cc(Cl)cc(C#N)c4)c3F)c(Cl)c2)CCNCC1.O=C(O)C(F)(F)F` showed a melting point of 130.5 °C. The molecule `CC(C)(CN)NC(=O)c1ccc(NC(=O)Cc2ccc(Br)c(Oc3cc(Cl)cc(C#N)c3)c2F)c(Cl)c1.Cl` had a melting point of 158 to 160.8 °C. In turn, `N#Cc1cc(Cl)cc(Oc2c(Br)ccc(CC(=O)Nc3ccc(C(=O)NC4(CO)CC4)cc3Cl)c2F)c1` registered a melting point of 247.7 to 250.1 °C. For the molecule `CC1(NC(=O)c2ccc(NC(=O)Cc3ccc(Br)c(Oc4cc(Cl)cc(C#N)c4)c3F)c(Cl)c2)CCS(=O)(=O)C1` (stereo not shown), the melting point was 95 to 105 °C. Consider `CS(=O)(=O)CCNC(=O)c1ccc(NC(=O)Cc2ccc(Br)c(Oc3cc(Cl)cc(C#N)c3)c2F)c(Cl)c1`, for which the melting point stood at 235.5 °C. Take `N#Cc1cc(Cl)cc(Oc2c(Br)ccc(CC(=O)Nc3ccc(C(=O)N[C@@H]4CS(=O)(=O)C[C@H]4O)cc3Cl)c2F)c1`: the melting point amounted to 245 °C. Regarding `CN1CCC(C)(NC(=O)c2ccc(NC(=O)Cc3ccc(Br)c(Oc4cc(Cl)cc(C#N)c4)c3F)c(Cl)c2)CC1`, the melting point came out at 96 °C. Turning to `N#Cc1cc(Cl)cc(Oc2c(Br)ccc(CC(=O)Nc3ccc(C(=O)NC4(CN)CC4)cc3Cl)c2F)c1.O=C(O)C(F)(F)F`, the melting point was in the range of 148 to 152.4 °C. Turning to `CC(CO)(CO)NC(=O)c1ccc(NC(=O)Cc2ccc(Br)c(Oc3cc(Cl)cc(C#N)c3)c2F)c(Cl)c1`, the melting point was 69.1 °C. For the molecule `Cc1cc(C(=O)NC[C@@H](C)O)ccc1NC(=O)Cc1ccc(Cl)c(Oc2cc(Cl)cc(C#N)c2)c1F` [Compound I-10, 4-{2-[4-Chloro-3-(3-chloro-5-cyano-phenoxy)-2-fluoro-phenyl]-acetylamino}-N-((R)-2-hydroxy-propyl)-3-methyl-benzamide], the melting point lay within 249 to 249.4 °C.

`Cc1cc(C(=O)NCCN2CCC(O)CC2)ccc1NC(=O)Cc1ccc(Br)c(Oc2cc(Cl)cc(C#N)c2)c1F` [Compound I-25, 4-{2-[4-Bromo-3-(3-chloro-5-cyano-phenoxy)-2-fluoro-phenyl]-acetylamino}-N-[2-(4-hydroxy-piperidin-1-yl)-ethyl]-3-methyl-benzamide] yielded a melting point of 219.6 to 221.6 °C.

`Cc1cc(C(=O)NCCN2CCNCC2)ccc1NC(=O)Cc1ccc(Br)c(Oc2cc(Cl)cc(C#N)c2)c1F` [Compound I-30, 4-{2-[4-Bromo-3-(3-chloro-5-cyano-phenoxy)-2-fluoro-phenyl]-acetylamino}-3-methyl-N-(2-piperazin-1-yl-ethyl)-benzamide]: the melting point lay in the range of 126.5 to 127 °C.

Take `Cc1cc(C(=O)NS(C)(=O)=O)ccc1NC(=O)Cc1ccc(Br)c(Oc2cc(Cl)cc(C#N)c2)c1F` [Compound I-36, 2-[4-Bromo-3-(3-chloro-5-cyano-phenoxy)-2-fluoro-phenyl]-N-(4-methanesulfonylaminocarbonyl-2-methyl-phenyl)-acetamide]: the melting point was in the range of 244.9 to 246.7 °C.
